Values after ≈ are worked out from the molar mass of the structure shown. Where two headings read alike, the source gives them in different places. *1 amine or outer side, *2 acyl side, *3 side chain or, on linkers, in order; H or OH if unused. Where a SMILES comes first, the peptide text is derived from it. Bridges are numbered along the chain shown (N, C = ends). Roman numbers before positions name the chains, in order. [ ]: non-standard residue; d: D form. The star is where a group is joined. X5 = C#CCOCCOCCOCCOCCN1C[C@@H](C(=O)[*:1])[C@H](C(=O)[*:2])C1; X2 = O=C([C@@H](N[*:1])[C@H](O)CCC(F)(F)F)[*:2]; Propargyl(OCH2CH2)4CO = C#CCOCCOCCOCCOCCC(=O)*; X3 = CCCCC[C@@H](O)[C@H](N[*:1])C(=O)[*:2]; azaDab = NCCN(N[*:1])C(=O)[*:2]; Aoc(2) = CCCCCC[C@H](N)C(=O)O; hLeu = CC(C)CC[C@H](N)C(=O)O; Nle = CCCC[C@H](N)C(=O)O; Dab = NCC[C@H](N)C(=O)O; azaGly = NNC(=O)O
Columns and labels:
A. baumannii AB5075 = assay type: cell-based
Method: (§1) Overnight stationary-phase cultures were centrifuged at 3,500×g for 10 min at room temperature and resuspended in 1×PBS to an optical density at 600 nm (OD600) of 0.4 (1×10^8 colony forming units [CFU]/ml) in RPMI with L-glutamine and phenol red (Life Technologies). Bacteria were diluted 1:25 in RPMI ([…]) and 10 ul added to wells of a non-binding 96-well plate (Corning 3641) containing 80 ul of 50% hirudin anti-coagulated blood (complement active) in RPMI. […] MBC was defined as the minimum conjugate concentration required for bacterial clearance (Table 8A and Table 8B). An untreated growth control (40% blood, 0 ug/ml conjugate) was included in all assays as a growth comparator.
(§2) MBC was defined as the minimum compound concentration required for complete bacterial clearance (Table 18).
(§3) In most cases, 2-4 fold improvements in antibacterial activity for the conjugates are observed in the presence of complement active human blood.

E. coli ATCC 25922 = assay type: cell-based
Method: as §1, §2, §3

P. aeruginosa PAO1 = assay type: cell-based
Method: as §1, §2, §3

Ab 8990 (COL^R) = assay type: cell-based, Acinetobacter baumannii
In short: (§4)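 MHA colonies → 0.85% saline, OD600 ~0.1; 2-fold serial dilutions ×8 or ×12; conjugates in RPMI B; 35° C, 16-20 h. Pa LES431 ± 50% heat-inactivated FBS.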

Ab AB5075 = assay type: cell-based, Acinetobacter baumannii; conditions: for MIC in RPMI AB 5075: pH 7.4
In short: as §4

Kp 10031 = assay type: cell-based, Klebsiella pneumoniae
In short: as §4

Kp 43816 = assay type: cell-based, Klebsiella pneumoniae
In short: as §4

Kp 6951 (COL^R) = assay type: cell-based, Klebsiella pneumoniae; conditions: Kp 6951 (COL^R); media CA-MHB
In short: as §4

LPS from E. coli O111:B4 = assay: LPS binding/neutralization by Limulus Amebocyte Lysate (LAL) assay; assay type: biochemical; conditions: LPS 1-10,000 ng/mL, test article 0.25-10 μM; sum of AUCs relative to maximal AUC (Table 15)
Method: The LAL assay (Charles River) was used to determine the binding affinity of test articles to LPS.
(§5) For the assay, 25 μL purified LPS from E. coli O111:1B4 (Sigma) at doses ranging from 1-10,000 ng/mL were incubated with 25 μL of test article at concentrations ranging from 0.25-10 NM. After 5 min incubation at 37° C., 50 μL of LAL reagent, which reacts with lipid A portion from LPS, was added to corresponding wells. After 15 min, absorbance at 405 nm was read on EnSpire plate reader (Perkin Elmer). The % LPS neutralization is calculated relative to a PBS control (background) and LPS control at each concentration (positive control).
LPS neutralization=(1−(absorbance test article−PBS with LAL reagent)/(absorbance no test article−PBS with LAL reagent))×100
To obtain a single value of LPS neutralization for each test article, the area under the curve (AUC) for dose-response of test articles from […] for each LPS concentration was calculated using Prism 7 software. The % LPS neutralization is the sum of the AUCs for each LPS concentration determined relative to the maximal AUC achievable×100.
as §5, with “O111:B4” for “O111:1B4”, “μM.” for “NM.”

`C#CCOCCOCCOCCOCCC(=O)N[C@@H](CCC(C)C)C(=O)N[C@@H](CCN)C(=O)N[C@H](C(=O)NNC(=O)N[C@H]1CCNC(=O)[C@H]([C@@H](C)O)NC(=O)[C@H](CCN)NC(=O)[C@H](CCN)NC(=O)[C@H](CC(C)C)NC(=O)[C@@H](Cc2ccccc2)NC(=O)[C@H](CCN)NC1=O)[C@H](O)CCCCC` [Int-116] ({Propargyl(OCH2CH2)4CO}-[hLeu][Dab][X3][azaGly][Dab][Dab][dF]L[Dab][Dab]T; lactam 5-C) was tested, and the “MBC in blood AB 5075” value (A. baumannii AB5075) was 0.05 µg/mL (≈ 0.0346 µM), the “MBC in blood EC 25922” value (E. coli ATCC 25922) was 0.2 µg/mL (≈ 0.138 µM) and the “MBC in blood PA 01” value (P. aeruginosa PAO1) was >0.2 µg/mL. The MIC (Ab 8990 (COL^R); Ab 8990 (COL^R), media CA-MHB) was >128 µg/mL, the MIC (Ab AB5075) was 1 µg/mL (≈ 0.691 µM) and the “MIC in RPMI AB 5075” value (Ab AB5075) was 1.05 µg/mL (≈ 0.726 µM). The MIC (Kp 10031) was 2 µg/mL (≈ 1.38 µM), the MIC (Kp 43816) was 2 µg/mL (≈ 1.38 µM) and the MIC (Kp 6951 (COL^R)) was >128 µg/mL. The “% LPS neutralization” value (LPS from E. coli O111:B4) was 33.2%.

For `C#CCOCCOCCOCCOCCC(=O)N[C@@H](CCCCCC)C(=O)N[C@@H](CCN)C(=O)N[C@H](C(=O)N[C@@H](CCN)C(=O)N[C@H]1CCNC(=O)[C@H]([C@@H](C)O)NC(=O)[C@H](CCN)NC(=O)[C@H](CCN)NC(=O)[C@H](CC(C)C)NC(=O)[C@@H](Cc2ccccc2)NC(=O)[C@H](CCN)NC1=O)[C@H](O)CCC(F)(F)F` [Int-118] ({Propargyl(OCH2CH2)4CO}-[Aoc(2)][Dab][X2][Dab][Dab][Dab][dF]L[Dab][Dab]T; lactam 5-C), the “MBC in blood AB 5075” value (A. baumannii AB5075) was 0.025 µg/mL (≈ 0.0164 µM), the “MBC in blood EC 25922” value (E. coli ATCC 25922) was 0.05 µg/mL (≈ 0.0327 µM) and the “MBC in blood PA 01” value (P. aeruginosa PAO1) was >0.2 µg/mL. The MIC (Ab 8990 (COL^R)) was 128 µg/mL (≈ 83.7 µM), the MIC (Ab AB5075) was 1 µg/mL (≈ 0.654 µM) and the “MIC in RPMI AB 5075” value (Ab AB5075) was 0.95 µg/mL (≈ 0.621 µM). For the same compound, the MIC (Kp 10031) was 2 µg/mL (≈ 1.31 µM), the MIC (Kp 43816) was 2 µg/mL (≈ 1.31 µM) and the “% LPS neutralization” value (LPS from E. coli O111:B4) was 59.0%.

In the case of `C#CCOCCOCCOCCOCCN1C[C@@H](C(=O)N[C@@H](CCCC)C(=O)N[C@@H](CCN)C(=O)N[C@H](C(=O)NNC(=O)N[C@H]2CCNC(=O)[C@H]([C@@H](C)O)NC(=O)[C@H](CCN)NC(=O)[C@H](CCN)NC(=O)[C@H](CC(C)C)NC(=O)[C@@H](Cc3ccccc3)NC(=O)[C@H](CCN)NC2=O)[C@@H](C)O)[C@H](C(=O)N[C@@H](CCCC)C(=O)N[C@@H](CCN)C(=O)N[C@H](C(=O)NNC(=O)N[C@H]2CCNC(=O)[C@H]([C@@H](C)O)NC(=O)[C@H](CCN)NC(=O)[C@H](CCN)NC(=O)[C@H](CC(C)C)NC(=O)[C@@H](Cc3ccccc3)NC(=O)[C@H](CCN)NC2=O)[C@@H](C)O)C1` [Int-120] (I: [Nle][Dab]T[azaGly][Dab][Dab][dF]L[Dab][Dab]T / II: [Nle][Dab]T[azaGly][Dab][Dab][dF]L[Dab][Dab]T; lactam I:5-I:C, II:5-II:C; linker I:N-II:N via X5), the MIC (Ab 8990 (COL^R); Ab 8990 (COL^R), media CA-MHB) is reported as >128 µg/mL, the MIC (Ab AB5075; Ab AB5075, media CA-MHB) is reported as 2 µg/mL (≈ 0.767 µM) and the MIC (Kp 10031; Kp 10031, media CA-MHB) is reported as 2 µg/mL (≈ 0.767 µM). For the same compound, the MIC (Kp 43816; Kp 43816, media CA-MHB) was 2 µg/mL (≈ 0.767 µM), the MIC (Kp 6951 (COL^R)) was 8 µg/mL (≈ 3.07 µM) and the “% LPS neutralization” value (LPS from E. coli O111:B4) was 68.0%.

`C#CCOCCOCCOCCOCCC(=O)N[C@@H](CCC(C)C)C(=O)N[C@@H](CCN)C(=O)N[C@H](C(=O)NN(CCN)C(=O)N[C@H]1CCNC(=O)[C@H]([C@@H](C)O)NC(=O)[C@H](CCN)NC(=O)[C@H](CCN)NC(=O)[C@H](CC(C)C)NC(=O)[C@@H](Cc2ccccc2)NC(=O)[C@H](CCN)NC1=O)[C@@H](C)O` [Int-127] ({Propargyl(OCH2CH2)4CO}-[hLeu][Dab]T[azaDab][Dab][Dab][dF]L[Dab][Dab]T; lactam 5-C) was tested, and the “MBC in blood AB 5075” value (A. baumannii AB5075) was 0.1 µg/mL (≈ 0.0697 µM), the “MBC in blood EC 25922” value (E. coli ATCC 25922) was 0.025 µg/mL (≈ 0.0174 µM) and the “MBC in blood PA 01” value (P. aeruginosa PAO1) was 0.1 µg/mL (≈ 0.0697 µM). The MIC (Ab 8990 (COL^R); Ab 8990 (COL^R), media CA-MHB) was >128 µg/mL, the MIC (Ab AB5075) was 2 µg/mL (≈ 1.39 µM) and the “MIC in RPMI AB 5075” value (Ab AB5075) was 1.00 µg/mL (≈ 0.697 µM). The MIC (Kp 10031) was 1 µg/mL (≈ 0.697 µM), the MIC (Kp 43816) was 1 µg/mL (≈ 0.697 µM) and the MIC (Kp 6951 (COL^R)) was >128 µg/mL. For the same compound, the “% LPS neutralization” value (LPS from E. coli O111:B4) was 13.0%.

`C#CCOCCOCCOCCOCCC(=O)N[C@@H](CCCCCC)C(=O)N[C@@H](CCN)C(=O)N[C@H](C(=O)NN(CCN)C(=O)N[C@H]1CCNC(=O)[C@H]([C@@H](C)O)NC(=O)[C@H](CCN)NC(=O)[C@H](CCN)NC(=O)[C@H](CC(C)C)NC(=O)[C@@H](Cc2ccccc2)NC(=O)[C@H](CCN)NC1=O)[C@@H](C)O` [Int-129] ({Propargyl(OCH2CH2)4CO}-[Aoc(2)][Dab]T[azaDab][Dab][Dab][dF]L[Dab][Dab]T; lactam 5-C) gave an MIC (Ab 8990 (COL^R)) of 128 µg/mL (≈ 88.4 µM), an MIC (Ab AB5075) of 2 µg/mL (≈ 1.38 µM) and an MIC (Kp 10031) of 2 µg/mL (≈ 1.38 µM). The MIC (Kp 43816) was 2 µg/mL (≈ 1.38 µM) and the “% LPS neutralization” value (LPS from E. coli O111:B4) was 23.0%.
